Laboratory results reported in patent US12460050B2, “Nitric oxide-releasing hyperbranched compounds as antibacterial scaffolds and methods pertaining thereto” (The University of North Carolina at Chapel Hill, priority 2017, dated 2025).

System: Human gingival fibroblasts (HGF-1)
Assay: In vitro cytotoxicity (MTS) of PAMAM scaffolds
Type: cell-based
Method: The toxicity of the PAMAM scaffolds to human gingival fibroblasts (HGF-1) was evaluated after 2 and 24 h exposure times. Human gingival fibroblasts (HGF-1) were grown in FibroLife fibroblast serum-free media, and incubated in 5 vol % CO2 under humidified conditions at 37° C. The cells were trypsinized at 80% confluency and seeded into tissue culture-treated polystyrene 96-well plates at a density of 10^4 cells/well. The plates were incubated for an additional 24 h at 37° C. The supernatant was aspirated and replaced with 100 μL of fresh growth medium containing various concentrations of PAMAM scaffolds. After two incubation time points (i.e., 2 and 24 h) at 37° C., the supernatant was aspirated, and the cells were washed with DPBS. A 100 μL solution of media/MTS/PMS (105/20/1, v/v/v) solution was added to each well, and incubated for 3 h at 37° C. The absorbance of the colored supernatant was quantified at 490 nm using a Thermoscientific Multiskan EX plate reader (Waltham, MA). Measurements for untreated cells (control) and media/MTS/PMS mixture (blank) were also collected. Results were expressed as percentage of relative cell viability as follows: % cell viability=[(Abs490−Absblank)□/(Abscontrol−Absblank)]×100% (Eq. 1)
A killing curve was constructed for NO-releasing and control PAMAM scaffolds by plotting % cell viability versus concentration (mg mL^−).

**Q.** How did the “toxicity to HGF-1 (in words)” value turn out when Hyperbranched polyamidoamine [h-PAMAM] was run?
**A.** most toxic
